From patent US20220288057A1, “CONJOINT THERAPY FOR TREATING SEIZURE DISORDERS” (XENON PHARMACEUTICALS INC., priority 2021, published 2022)
Several values for one entry are separate records, joined by “and”; a condition that tells them apart may be missing. Identical values can stand only once. Like-named read-outs stand apart in the source and are kept apart here.

Legend:
in vivo = conditions: mouse
[1] = Clinical observations / behavioral signs in AC-MES studies; type: in vivo, mouse; conditions: male, CF-1, mouse, in vivo, read-out: plasma concentration of individual mouse showing behavioral signs (tremors, decreased activity, splayed hindlimbs)
Method: Any qualitative changes from normal behavior were recorded.
Five oral (PO) doses of Compound A were each tested in the AC-MES model. Thirty minutes after administration of Compound A at 1 mg/kg (n=8), 3 mg/kg (n=8), 5 mg/kg (n=16), 7.5 mg/kg (n=7), and 10 mg/kg (n=17) via oral gavage to male CF-1 mice (body weights 28.2 to 43.8 g), the mice underwent a 60 Hz corneal electrical stimulus (0.2 seconds duration, 40 mA). This stimulus elicited a tonic hindlimb extension in all vehicle-dosed animals. […] An observational neurological assessment (qualitative test) was also conducted at the time of testing as a tolerability screen. Terminal plasma and brain samples were collected from all animals to obtain the levels of Compound A concentration, and to understand the relationship between efficacy and drug concentration.
The Blinding and Randomization, Clinical Observations, AC-MES Assay, Sample Collection and Preparation, Plasma and Brain Samples Analysis, and Bioanalysis Procedures in Example 4 were identical to those used in Example 2.

[2] = Plasma and brain concentrations after MES testing (UHPLC-ESI-MS/MS); conditions: for concentration at 0.5 h / concentration at 2 h: CF-1, mouse, in vivo, po;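 on all read-outs here: brain and plasma were sampled from mice right after the efficacy test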
[3] = Compound A 0.25 mg/kg PO 2 h alone (phenytoin study), 0.25 mg/kg
[4] = Compound A 0.75 mg/kg PO 2 h alone (phenytoin study), 0.75 mg/kg
[5] = Compound A 1 mg/kg PO 2 h alone (levetiracetam study), 1 mg/kg
[6] = Compound A 1 mg/kg PO 2 h alone (phenytoin study), 1 mg/kg
[7] = Compound A 1 mg/kg PO 2 h alone (valproic acid study), 1 mg/kg
[8] = Compound A 2.5 mg/kg PO 2 h alone (phenytoin study), 2.5 mg/kg

Structure (SMILES): Cc1cc(N2CCc3cc(F)ccc3C2)cc(C)c1NC(=O)CC(C)(C)C [Compound A, N-[4-(6-fluoro-3,4-dihydro-1H-isoquinolin-2-yl)-2,6-dimethylphenyl]-3,3-dimethylbutanamide]
- concentration at 2 h (in vivo): 30 nM and 11.1 ng/mL
- concentration at 30 min ([1]; 7.5 mg/kg, Study 2B, Compound A 7.5 mg/kg group): 746 nM
- concentration at 30 min ([1]; 7.5 mg/kg, Study 4B, Compound A 7.5 mg/kg group): 750 nM
- concentration at 30 min ([1]; 10 mg/kg, Study 2A, Compound A 10 mg/kg group): 391 nM
- concentration at 30 min ([1]; 10 mg/kg, Study 4A, Compound A 10 mg/kg group): 390 nM
- concentration at 30 min ([1]; Study 2B, Compound A 10 mg/kg group, two mice): 608 nM
- concentration at 0.5 h ([2]; 1 mg/kg, Concentration Brain, Compound A 1 mg/kg PO single dose, tissue collection 0.5 hr): 270 nM
- concentration at 2 h ([2]; 1 mg/kg, Concentration Brain, Compound A 1 mg/kg PO single dose, tissue collection 2 hr): 190 nM
- concentration at 0.5 h ([2]; 1 mg/kg, Concentration Brain, Compound A 1 mg/kg PO, 0.5 hr): 97.9 ng/g
- concentration at 2 h ([2]; 1 mg/kg, Concentration Brain, Compound A 1 mg/kg PO, 2 hr): 70.2 ng/g
- concentration at 0.5 h ([2]; 1 mg/kg, Concentration Plasma, Compound A 1 mg/kg PO single dose, tissue collection 0.5 hr): 130 nM
- concentration at 2 h ([2]; 1 mg/kg, Concentration Plasma, Compound A 1 mg/kg PO single dose, tissue collection 2 hr): 100 nM
- concentration at 0.5 h ([2]; 1 mg/kg, Concentration Plasma, Compound A 1 mg/kg PO, 0.5 hr): 48.9 ng/mL
- concentration at 2 h ([2]; 1 mg/kg, Concentration Plasma, Compound A 1 mg/kg PO, 2 hr): 35.8 ng/mL
- concentration at 0.5 h ([2]; 2 mg/kg, Concentration Brain, Compound A 2 mg/kg PO single dose, tissue collection 0.5 hr): 360 nM
- concentration at 2 h ([2]; 2 mg/kg, Concentration Brain, Compound A 2 mg/kg PO single dose, tissue collection 2 hr): 210 nM
- concentration at 0.5 h ([2]; 2 mg/kg, Concentration Brain, Compound A 2 mg/kg PO, 0.5 hr): 132 ng/g
- concentration at 2 h ([2]; 2 mg/kg, Concentration Brain, Compound A 2 mg/kg PO, 2 hr): 75.8 ng/g
- concentration at 0.5 h ([2]; 2 mg/kg, Concentration Plasma, Compound A 2 mg/kg PO single dose, tissue collection 0.5 hr): 220 nM
- concentration at 2 h ([2]; 2 mg/kg, Concentration Plasma, Compound A 2 mg/kg PO single dose, tissue collection 2 hr): 130 nM
- concentration at 0.5 h ([2]; 2 mg/kg, Concentration Plasma, Compound A 2 mg/kg PO, 0.5 hr): 80.7 ng/mL
- concentration at 2 h ([2]; 2 mg/kg, Concentration Plasma, Compound A 2 mg/kg PO, 2 hr): 46.7 ng/mL
- concentration at 0.5 h ([2]; 4 mg/kg, Concentration Brain, Compound A 4 mg/kg PO single dose, tissue collection 0.5 hr): 640 nM
- concentration at 2 h ([2]; 4 mg/kg, Concentration Brain, Compound A 4 mg/kg PO single dose, tissue collection 2 hr): 360 nM
- concentration at 0.5 h ([2]; 4 mg/kg, Concentration Brain, Compound A 4 mg/kg PO, 0.5 hr): 235 ng/g
- concentration at 2 h ([2]; 4 mg/kg, Concentration Brain, Compound A 4 mg/kg PO, 2 hr): 131 ng/g
- concentration at 0.5 h ([2]; 4 mg/kg, Concentration Plasma, Compound A 4 mg/kg PO single dose, tissue collection 0.5 hr): 420 nM
- concentration at 2 h ([2]; 4 mg/kg, Concentration Plasma, Compound A 4 mg/kg PO single dose, tissue collection 2 hr): 230 nM
- concentration at 0.5 h ([2]; 4 mg/kg, Concentration Plasma, Compound A 4 mg/kg PO, 0.5 hr): 154 ng/mL
- concentration at 2 h ([2]; 4 mg/kg, Concentration Plasma, Compound A 4 mg/kg PO, 2 hr): 83 ng/mL
- concentration at 0.5 h ([2]; 8 mg/kg, Concentration Brain, Compound A 8 mg/kg PO single dose, tissue collection 0.5 hr): 1090 nM
- concentration at 2 h ([2]; 8 mg/kg, Concentration Brain, Compound A 8 mg/kg PO single dose, tissue collection 2 hr): 560 nM
- concentration at 0.5 h ([2]; 8 mg/kg, Concentration Brain, Compound A 8 mg/kg PO, 0.5 hr): 402 ng/g
- concentration at 2 h ([2]; 8 mg/kg, Concentration Brain, Compound A 8 mg/kg PO, 2 hr): 208 ng/g
- concentration at 0.5 h ([2]; 8 mg/kg, Concentration Plasma, Compound A 8 mg/kg PO single dose, tissue collection 0.5 hr): 710 nM
- concentration at 2 h ([2]; 8 mg/kg, Concentration Plasma, Compound A 8 mg/kg PO single dose, tissue collection 2 hr): 430 nM
- concentration at 0.5 h ([2]; 8 mg/kg, Concentration Plasma, Compound A 8 mg/kg PO, 0.5 hr): 261 ng/mL
- concentration at 2 h ([2]; 8 mg/kg, Concentration Plasma, Compound A 8 mg/kg PO, 2 hr): 158 ng/mL
- Brain concentration, Mean [2, 3]: 40 nM
- Plasma concentration, Mean [2, 3]: 0.01 μM and 4.3 ng/mL
- Brain concentration, Mean [2, 4]: 120 nM
- Plasma concentration, Mean [2, 4]: 0.03 μM and 11.7 ng/mL
- Brain concentration, Mean [2, 5]: 60 nM
- Plasma concentration, Mean [2, 5]: 0.03 μM and 11.1 ng/mL
- Brain concentration, Mean [2, 6]: 90 nM
- Plasma concentration, Mean [2, 6]: 0.05 μM and 17.0 ng/mL
- Brain concentration, Mean [2, 7]: 160 nM
- Plasma concentration, Mean [2, 7]: 0.066 μM and 24 ng/mL
- Concentration Plasma ([2]; Compound A 1 mg/kg PO single dose, tissue collection 2 hr, 1 mg/kg): 100 nM
- Brain concentration, Mean [2, 8]: 390 nM
- Plasma concentration, Mean [2, 8]: 45.1 ng/mL and 0.12 μM
